Laboratory results from the NIST ThermoML archive (doi:10.1021/je030167i).
Numbers after ± are expanded uncertainties.

Legend:
[1] = 101.3 kPa, Liquid
[2] = xn = mol fraction of the nth substance listed; conditions: 101.3 kPa, Liquid

CC(C)CCl [1-chloro-2-methylpropane]
[1]
Conditions | kinematic viscosity [m2/s] | mass density [kg/m3]
298.15 K | 4.92e-07 ± 1.8e-08 | 870.93 ± 0.49
313.15 K | 4.29e-07 ± 1.6e-08 | 853.51 ± 0.49

CC(C)CCl [1-chloro-2-methylpropane] + CC1CCCO1
[2]
Conditions | kinematic viscosity, 298.15 K [m2/s] | kinematic viscosity, 313.15 K [m2/s] | mass density, 298.15 K [kg/m3] | mass density, 313.15 K [kg/m3]
x1 = 0.0484 | 5.56e-07 ± 2e-08 | 4.88e-07 ± 1.8e-08 | 850.43 ± 0.49 | 834.97 ± 0.49
x1 = 0.0999 | 5.52e-07 ± 2e-08 | 4.85e-07 ± 1.8e-08 | 852.07 ± 0.49 | 836.22 ± 0.49
x1 = 0.1962 | 5.44e-07 ± 1.9e-08 | 4.78e-07 ± 1.8e-08 | 854.44 ± 0.49 | 838.53 ± 0.49
x1 = 0.3105 | 5.35e-07 ± 1.9e-08 | 4.7e-07 ± 1.7e-08 | 857.3 ± 0.49 | 841.23 ± 0.49
x1 = 0.4006 | 5.29e-07 ± 1.9e-08 | 4.65e-07 ± 1.7e-08 | 859.25 ± 0.49 | 843.09 ± 0.49
x1 = 0.4775 | 5.23e-07 ± 1.9e-08 | 4.6e-07 ± 1.7e-08 | 860.99 ± 0.49 | 844.5 ± 0.49
x1 = 0.6006 | 5.15e-07 ± 1.9e-08 | 4.52e-07 ± 1.7e-08 | 863.58 ± 0.49 | 846.94 ± 0.49
x1 = 0.7031 | 5.08e-07 ± 1.8e-08 | 4.46e-07 ± 1.7e-08 | 865.6 ± 0.49 | 848.88 ± 0.49
x1 = 0.8026 | 5.03e-07 ± 1.8e-08 | 4.4e-07 ± 1.6e-08 | 867.49 ± 0.49 | 850.49 ± 0.49
x1 = 0.9059 | 4.97e-07 ± 1.8e-08 | 4.34e-07 ± 1.6e-08 | 869.22 ± 0.49 | 852.11 ± 0.49
x1 = 0.9506 | 4.95e-07 ± 1.8e-08 | 4.32e-07 ± 1.6e-08 | 870.2 ± 0.49 | 852.87 ± 0.49
x1 = 1 | 4.92e-07 ± 1.8e-08 | 4.29e-07 ± 1.6e-08 | 870.93 ± 0.49 | 853.51 ± 0.49

CCCCCl [1-chlorobutane]
[1]
Conditions | kinematic viscosity [m2/s] | mass density [kg/m3]
298.15 K | 4.78e-07 ± 1.7e-08 | 880.62 ± 0.3
313.15 K | 4.21e-07 ± 1.6e-08 | 863.86 ± 0.31

CCCCCl [1-chlorobutane] + CC1CCCO1
[2], x1 = 1
Conditions | kinematic viscosity [m2/s] | mass density [kg/m3]
298.15 K | 4.78e-07 ± 1.7e-08 | 880.62 ± 0.3
313.15 K | 4.21e-07 ± 1.6e-08 | 863.86 ± 0.31

CC(C)(C)Cl [2-chloro-2-methylpropane]
[1], 298.15 K
Conditions | kinematic viscosity [m2/s] | mass density [kg/m3]
– | 5.66e-07 ± 1e-08 | 835.75 ± 0.49

CC(C)(C)Cl [2-chloro-2-methylpropane] + CC1CCCO1
[2], 298.15 K
Conditions | kinematic viscosity [m2/s] | mass density [kg/m3]
x1 = 0.0481 | 5.59e-07 ± 1e-08 | 849.09 ± 0.49
x1 = 0.0972 | 5.57e-07 ± 1e-08 | 848.97 ± 0.49
x1 = 0.196 | 5.55e-07 ± 1e-08 | 848.4 ± 0.49
x1 = 0.2907 | 5.55e-07 ± 1e-08 | 847.61 ± 0.49
x1 = 0.3874 | 5.54e-07 ± 1e-08 | 846.54 ± 0.49
x1 = 0.4878 | 5.54e-07 ± 1e-08 | 845.21 ± 0.49
x1 = 0.5888 | 5.55e-07 ± 1e-08 | 843.72 ± 0.49
x1 = 0.7 | 5.57e-07 ± 1e-08 | 842.04 ± 0.49
x1 = 0.7912 | 5.59e-07 ± 1e-08 | 840.61 ± 0.49
x1 = 0.8945 | 5.62e-07 ± 1e-08 | 838.65 ± 0.49
x1 = 0.9474 | 5.63e-07 ± 1e-08 | 837.24 ± 0.49
x1 = 1 | 5.66e-07 ± 1e-08 | 835.75 ± 0.49

CCC(C)Cl (configuration not stated) [2-chlorobutane]
[1]
Conditions | kinematic viscosity [m2/s] | mass density [kg/m3]
298.15 K | 4.54e-07 ± 1.7e-08 | 867.31 ± 0.49
313.15 K | 3.97e-07 ± 1.5e-08 | 850.23 ± 0.49

CCC(C)Cl (configuration not stated) [2-chlorobutane] + CC1CCCO1
[2]
Conditions | kinematic viscosity, 298.15 K [m2/s] | kinematic viscosity, 313.15 K [m2/s] | mass density, 298.15 K [kg/m3] | mass density, 313.15 K [kg/m3]
x1 = 0.035 | 5.55e-07 ± 2e-08 | 4.88e-07 ± 1.8e-08 | 850.14 ± 0.49 | 834.84 ± 0.49
x1 = 0.0835 | 5.49e-07 ± 1.9e-08 | 4.83e-07 ± 1.8e-08 | 851.29 ± 0.49 | 835.54 ± 0.49
x1 = 0.1742 | 5.38e-07 ± 1.9e-08 | 4.74e-07 ± 1.7e-08 | 853.4 ± 0.49 | 837.42 ± 0.49
x1 = 0.2553 | 5.29e-07 ± 1.9e-08 | 4.65e-07 ± 1.7e-08 | 854.9 ± 0.49 | 839.1 ± 0.49
x1 = 0.3568 | 5.17e-07 ± 1.9e-08 | 4.56e-07 ± 1.7e-08 | 857.12 ± 0.49 | 840.87 ± 0.49
x1 = 0.4555 | 5.05e-07 ± 1.8e-08 | 4.46e-07 ± 1.7e-08 | 858.75 ± 0.49 | 842.26 ± 0.49
x1 = 0.5396 | 4.96e-07 ± 1.8e-08 | 4.38e-07 ± 1.6e-08 | 860.37 ± 0.49 | 843.91 ± 0.49
x1 = 0.697 | 4.81e-07 ± 1.8e-08 | 4.24e-07 ± 1.6e-08 | 863.09 ± 0.49 | 846.32 ± 0.49
x1 = 0.797 | 4.71e-07 ± 1.7e-08 | 4.15e-07 ± 1.6e-08 | 864.45 ± 0.49 | 847.77 ± 0.49
x1 = 0.8975 | 4.63e-07 ± 1.7e-08 | 4.06e-07 ± 1.5e-08 | 866.03 ± 0.49 | 848.87 ± 0.49
x1 = 0.9487 | 4.58e-07 ± 1.7e-08 | 4.01e-07 ± 1.5e-08 | 866.65 ± 0.49 | 849.41 ± 0.49
x1 = 1 | 4.54e-07 ± 1.7e-08 | 3.97e-07 ± 1.5e-08 | 867.31 ± 0.49 | 850.23 ± 0.49

CC(C)CO [2-methyl-1-propanol]
[1]
Conditions | kinematic viscosity [m2/s] | mass density [kg/m3]
298.15 K | 4.25e-06 ± 1.2e-07 | 797.71 ± 0.35
313.15 K | 2.74e-06 ± 8.2e-08 | 785.89 ± 0.36

CC(C)CO [2-methyl-1-propanol] + CC1CCCO1
[2], x1 = 1
Conditions | kinematic viscosity [m2/s] | mass density [kg/m3]
298.15 K | 4.25e-06 ± 1.2e-07 | 797.71 ± 0.35
313.15 K | 2.74e-06 ± 8.2e-08 | 785.89 ± 0.36

CC(C)(C)O [2-methylpropan-2-ol]
[1]
Conditions | kinematic viscosity [m2/s] | mass density [kg/m3]
298.15 K | 5.59e-06 ± 1.6e-07 | 780.67 ± 0.36
313.15 K | 2.74e-06 ± 8.8e-08 | 765.33 ± 0.37

CC(C)(C)O [2-methylpropan-2-ol] + CC1CCCO1
[2], x1 = 1
Conditions | kinematic viscosity [m2/s] | mass density [kg/m3]
298.15 K | 5.59e-06 ± 1.6e-07 | 780.67 ± 0.36
313.15 K | 2.74e-06 ± 8.8e-08 | 765.33 ± 0.37

CC1CCCO1 (configuration not stated) [2-methyltetrahydrofuran]
[1]
Conditions | kinematic viscosity [m2/s] | mass density [kg/m3]
298.15 K | 5.59e-07 ± 2e-08 | 849.28 ± 0.49
313.15 K | 4.92e-07 ± 1.8e-08 | 834.01 ± 0.49

CC1CCCO1 (configuration not stated) [2-methyltetrahydrofuran] + CC(C)(C)Cl
[2], 298.15 K, x2 = 0
Conditions | kinematic viscosity [m2/s] | mass density [kg/m3]
– | 5.59e-07 ± 1e-08 | 849.28 ± 0.49

CC1CCCO1 (configuration not stated) [2-methyltetrahydrofuran] + CC(C)(C)O
[2]
Conditions | kinematic viscosity, 298.15 K [m2/s] | kinematic viscosity, 313.15 K [m2/s] | mass density, 298.15 K [kg/m3] | mass density, 313.15 K [kg/m3]
x2 = 0 | 5.59e-07 ± 2e-08 | 4.92e-07 ± 1.8e-08 | 849.28 ± 0.49 | 834.01 ± 0.49
x2 = 0.038 | 5.81e-07 ± 2e-08 | 5.04e-07 ± 1.8e-08 | 846.42 ± 0.48 | 831.02 ± 0.48
x2 = 0.0906 | 6.07e-07 ± 2.1e-08 | 5.27e-07 ± 1.9e-08 | 842.39 ± 0.47 | 826.98 ± 0.48
x2 = 0.191 | 6.72e-07 ± 2.3e-08 | 5.73e-07 ± 2e-08 | 835.27 ± 0.46 | 819.77 ± 0.46
x2 = 0.3192 | 7.79e-07 ± 2.6e-08 | 6.49e-07 ± 2.2e-08 | 826.46 ± 0.44 | 811.22 ± 0.44
x2 = 0.3935 | 8.66e-07 ± 2.8e-08 | 7.06e-07 ± 2.4e-08 | 821.4 ± 0.43 | 806.46 ± 0.43
x2 = 0.4981 | 1.03e-06 ± 3.3e-08 | 8.15e-07 ± 2.7e-08 | 814.49 ± 0.41 | 799.58 ± 0.42
x2 = 0.5918 | 1.25e-06 ± 3.9e-08 | 9.49e-07 ± 3.1e-08 | 808.4 ± 0.4 | 793.51 ± 0.41
x2 = 0.6972 | 1.67e-06 ± 5.1e-08 | 1.17e-06 ± 3.7e-08 | 801.38 ± 0.39 | 786.72 ± 0.4
x2 = 0.7952 | 2.2e-06 ± 6.6e-08 | 1.47e-06 ± 4.6e-08 | 795.17 ± 0.38 | 780.27 ± 0.39
x2 = 0.8989 | 3.34e-06 ± 9.8e-08 | 1.97e-06 ± 6.1e-08 | 788.08 ± 0.37 | 773.14 ± 0.38
x2 = 0.9532 | 4.37e-06 ± 1.3e-07 | 2.35e-06 ± 7.4e-08 | 784.19 ± 0.37 | 769.08 ± 0.38

CC1CCCO1 (configuration not stated) [2-methyltetrahydrofuran] + CC(C)CCl
[2], x2 = 0
Conditions | kinematic viscosity [m2/s] | mass density [kg/m3]
298.15 K | 5.59e-07 ± 2e-08 | 849.28 ± 0.49
313.15 K | 4.92e-07 ± 1.8e-08 | 834.01 ± 0.49
